Patent US7056734B1, “Differentiation of non-insulin producing cells into insulin producing cells by GLP-1 or exendin-4 and uses thereof” (The United States of America as represented by the …, priority 1998, dated 2006)
Like-named read-outs stand apart in the source and are kept apart here.

How the values were obtained:
AR42J cells [1] = assay: Immunoreactive insulin release from treated AR42J cells (RIA); assay type: cell-based, rat; conditions: 200 μM PKI or PD98059 (50 μM)
Description: Measurement of immunoreactive insulin. AR42J cells were cultured as before in 12-well cluster plates. When cells reached 60% confluence, they were treated with GLP-1 for 3 days. At the beginning of the experiments, an aliquot of the medium was taken in order to assay the insulin accumulation in the medium. Then the cells were twice washed with Kreb's Ringer Balanced Buffer (KRBB) and incubated in the same buffer containing 10 mM glucose for another 1 h. The medium was collected and kept at −20° C. until insulin levels were assayed by RIA (See Example 1; Wang et al., Endocrinology, 1995). The cells were washed with PBS and detached with 0.25% typsin and 0.02% EDTA. The cell pellet was collected and lysed with formic acid for protein determination by the Bradford method (Bradford, 1976), using bovine-globulin as standard.

ERK = assay: MAP kinase (ERK) activity in AR42J cells; assay type: cell-based, rat; conditions: PKI 300 μM
Description: MAP Kinase Activity. After treatment, 60 mm dishes of 80% confluent cells were lysed at 4° C. in lysis buffer (in mM): 50 TRIS-HCl, PH 8, 150 NaCl, 5 EDTA, 1% NP-40, 0.25% sodium deoxycholate, 1 NaF, 10 sodium pyrophosphate, 0.1 PMSF, 1 sodium orthovanadate, 20 μg/ml aprotinin, and 10 μg/ml leupeptin. The cell lysate was clarified by centrifugation at 16,000×g at 4° C. for 20 min. The clarified cell lysate was immunoprecipitated overnight at 4° C., rotating with 4.5 μg of ERK1-CT antibody and 40 μl of packed protein G+protein A agarose resin (Oncogene Research Product, Cambridge, Mass.). The immune pellet was assayed for MAPK activity using MBP as the substrate. MBP (18.6 μg) was phosphorylated at 20° C. for 10 min in a final volume of 60 μl containing 20 mM Hepes, PH 7.4, 10 mM MgCl2, 1 mM DTT, 20 uM unlabeled ATP and 40 μCi (3,000 Ci/mmol) [^32P]-ATP. The reaction was terminated by the addition of 25 μl of 3× Laemmli sample buffer and heating at 70° C. for 10 min. MAPK activity was assessed by SDS-PAGE and auto-radiography. The autoradiograms were quantified by densitometry.

AR42J cells [2] = assay: Immunocytochemistry of insulin- and glucagon-positive AR42J cells; assay type: cell-based, rat; conditions: PD98059 50 μM or PKI 300 μM added concurrently with GLP-1
Description: Cell culture. AR42J cells were maintained in Dulbecco's modified Eagle's medium (DMEM) supplemented with 10% fetal calf serum (FBS), 100 IU/ml penicillin, 100 μg/ml streptomycin and 2 mM glutamine. Cells from passage 23–35 were used throughout this study. Cells were routinely plated at a density of about 10^5 cells/ml in 12-well cluster dishes or on coverslips and incubated in a humidified incubator at 37° C. with 95% air and 5% CO2.
Immunocytochemistry analysis. Cells were cultured on glass coverslips, washed with phosphate buffered saline (PBS) to remove serum, and fixed with 0.5% glutaraldehyde in PBS. Cells were permeabilized with 0.2% Triton X-100 for 5 min and the rest of the procedure was carried out at room temperature in a humidified chamber. Suction was used to remove reagents between each step but drying of specimens was avoided. Sufficient reagent was used to cover each specimen (approximately 1 or 2 drops was usually adequate). The coverslips were incubated in 0.3% H2O2 in PBS for 30 min to quench endogenous peroxidase activity and washed in PBS×3 times, followed by incubation with 2% goat serum in PBS for 30 min to block non-specific binding of IgG. Excess serum was removed by blotting. The specific primary polyclonal antisera (anti-insulin 1:300; anti-glucagon 1:300) were used. Antibody was diluted in PBS containing 1% goat serum. This was applied to the coverslip and incubated at room temperature for 1 h. The coverslips were washed ×3 times in PBS, each time for 5 min, then incubated with biotinylated second antibody for 1 h and washed ×3 times with PBS. Avidin-biotin-peroxidase complex in PBS was applied for 30 min. Immunoperoxidase labeling was performed with a Vectostain ABC kit (Vector Labs, Burlingame, Calif.). After extensive washing in PBS for 4–5 times (each 5 min), the coverslips were incubated in diaminobenzidine tetrahydrochloride (DAB) in PBS, with 0.01% hydrogen peroxide for 3 min. The reaction was stopped by washing the coverslips in PBS and examined under a light microscope. To confirm specific staining, samples incubated with preabsorbed primary antibody were used as negative control, and the insulin producing cell line RIN 1046-38 cells were used as positive control for our experiments. The avidin-biotin-peroxidase (ABC) procedure was performed according to methods known in the art (Hsu et al., 1981).

AR42J cells [3] = assay: Amylase release from AR42J cells; assay type: cell-based, rat; conditions: for effect on CCK-induced amylase release: combined with CCK (1 nM), genestein 300 μM
Description: Cell Culture. AR42J cells were maintained in Dulbecco's modified Eagle's medium (Gibco, Grand Island, N.Y.) (DMEM) supplemented with 10% Fetal Calf Serum, 100 IU/ml penicillin, 100 μg/ml streptomycin and 2 mM glutamine. Cells from passage 23–36 were used throughout this study.
Amylase Assay. For amylase secretion, cells were washed free of medium with 2 ml phosphate buffered saline (PBS). Incubation was then carried out in DMEM containing 15 mM HEPES, 0.2% bovine serum albumin (BSA) and 0.01% soybean trypsin inhibitor. The hormones and reagents of interest were added for 50 min at 37° C. The incubation medium was then immediately removed for amylase determination and the cells were again washed in 2 ml ice-cold PBS. […] The released amylase was expressed as the percentage of the total amylase activity of the cells.

AR42J cells [4] = assay: Protein tyrosine phosphorylation in AR42J cells; assay type: cell-based, rat; conditions: 5 min treatment
Description: Tyrosine Phosphorylation Studies. […] Then the medium was removed and fresh KRBB was added, followed by placing the cell on a 37° C. hot plate for 5 min. After addition of various reagents (see FIG. 24) for 5 min the reaction was terminated by submersion of the dishes in liquid nitrogen. The frozen cells were scraped and lysed in RIPA buffer. […] The blots were developed using the ECL chemiluminescence detection system (Amersham).

AR42J cells [5] = assay: Intracellular cAMP in AR42J cells; assay type: cell-based, rat; conditions: for intracellular cAMP levels: 1 h, GLP-1 0.1 to 100 nM, IBMX 100 nM, CCK 0.1 to 100 nM, exendin-4 0.1 to 10 nM
Description: Measurement of cAMP. Cells were grown in 12-well dishes and treated with hormones and reagents±IBMX as described above. They were then washed 3 times in ice-cold PBS and lysed with 1 ml ice-cold […] perchloric acid. The lysates (950 μl) were transferred to microcentrifuge tubes and the pH adjusted to 7.0 using 5 M K2CO3. After centrifugation for 5 min at 10^4 rpm, the supernatant was vacuum dried, and then recovered in 200 μl Tris/EDTA buffer. After addition of 0.15 mM Na2CO3 (50 μl) and 0.15 mM ZnSO^4 (50 μl), followed by incubation for 15 min on ice, the salt precipitate was removed by centrifugation for 15 min at 3.5×10^3 rpm and 50 μl of supernatant was assayed using a cAMP [^3] assay kit (Amersham Corp., Arlington Heights, Ill.), (Steiner et al., 1972).

AR42J cells [6] = assay: Amylase content and CCK response of AR42J cells after 72 h treatment; assay type: cell-based, rat; conditions: dexamethasone 72 h
Description: Amylase Assay. For amylase determination, cells were washed free of medium with 2 ml PBS. Incubation was then carried out in DMEM containing 15 mM HEPES, 0.2% BSA and 0.01% soybean trypsin inhibitor. CCK (1 nM) was added for 50 min at 37° C. The incubation medium was then immediately removed for amylase determination and the cells were again washed in 2 ml ice-cold PBS. Lysate buffer containing (in mM) 130 Tris-HCl, 10 CaCl2, 75 NaCl, and 0.2% Triton X-100 (pH 8.0) was added to the cells and the lysates were then collected for total amylase (Ceska et al., 1969). The released amylase was expressed as the percentage of the total amylase in the cells.

AR42J cells [7] = assay: Intracellular calcium in single AR42J cells (indo-1); assay type: cell-based, rat; conditions: for AR42J cells showing [Ca2+]i response: CCK 1 nM
Description: Measurement of intracellular calcium, [Ca^2+]l. AR42J cells were loaded with the fluorescent Ca^2+ probe, indo-1 acetoxymethyl ester (indo-1/AM). […] Both loading with indo-1 and the experiments were carried out at room temperature (22–24° C.). […] The emission field was restricted to a single cell. Indo-1 was excited at 350±5 nm every 5 ms, and the fluorescence emission was split into wavelength bands of 410±5 and 490±5 nm. […] The cell autofluorescence was assessed in a large number of indo-1 non-loaded cells from the same batch. […] Routinely, the cells were exposed to the test solution for 240–300s. Thereafter, the test solution was washed out, while [Ca^2+]l was monitored for additional 120–180s. The test solutions were prepared just prior to the experiment by adding the hormones in standard bathing solution.

rat acinar cells = conditions: CCK alone vs 10^−8 M exendin-4 and CCK together; Malhotra et al. 1992; cited from earlier work
AR42J cells [8] = assay: 125I-GLP-1 binding to AR42J cells; design: species or system rat; dose or concentration left out as unconfirmed; conditions: displacement by cold GLP-1, n=9
Description: GLP-1 binding. AR42J cells were plated and cultured as described above. At the start of the binding experiment the cells were incubated with serum-free DMEM for 2 h at 37° C. Cells were then washed twice with 0.5 ml binding buffer containing (in mM) 120 NaCl, 1.2 MgSO4, 13 sodium acetate, 5 KCl, 10 Tris, pH 7.6. […] We only used freshly prepared ^125I-GLP-1 within two weeks of the reference date. At the end of the incubation, the supernatant was discarded and the cells were washed three times with ice-cold PBS. Cells were lysed with 0.5 ml 0.5 N NaOH/0.1% SDS for 30 min at room temperature. The radioactivity was measured in the lysates in an ICN Apec series gamma counter. […] This method has been used previously to characterize GLP-1 binding in CHO cells overexpressing GLP-1 receptor and in 3T3-L1 adipocytes (Montrose-Rafizadeh et al., J. Biol. Chem., 1997; Montrose-Rafizadeh et al., J Cell Physiol., 1997).

[9] = 50 min, glucagon 10 or 100 nM, GLP-1 10 nM, insulin 100 nM, 8-Br-cAMP 100 nM, vanadate 1 mM

CCCCCCCCCCCCCCCCOCC(CO)OC (racemic) [PKI, 1-o-Hexadecyl-2-o-methyl-rac-glycerol, reference compound]
insulin secretion of GLP-1-treated cells in presence of inhibitor (AR42J cells [1]): barely detected
MAPK activity with inhibitor alone (ERK): decreased MAPK activity to less than that of control cells
effect on GLP-1-induced conversion of AR42J cells (AR42J cells [2]): conversion of the cells did not occur

O=c1c(-c2ccc(O)cc2)coc2cc(O)cc(O)c12 [Genestein]
effect on CCK-induced amylase release (AR42J cells [3]; vanadate 1 mM): decreased
effect on protein tyrosine phosphorylation (AR42J cells [4]): decreased tyrosine phosphorylations induced by CCK

CC(C)Cn1c(=O)n(C)c(=O)c2[nH]cnc21 [IBMX]
intracellular cAMP levels (AR42J cells [5]): not altered

[F-].[Na+] [NaF, sodium fluoride]
effect on amylase release when given alone (AR42J cells [3]; [9]): did like-wise
effect on protein tyrosine phosphorylation (AR42J cells [4]): increased

COc1cccc(-c2cc(=O)c3ccccc3o2)c1N [PD98059, reference compound]
insulin secretion of GLP-1-treated cells in presence of inhibitor (AR42J cells [1]): barely detected
effect on GLP-1-induced conversion of AR42J cells (AR42J cells [2]): conversion of the cells did not occur

C[C@@H]1C[C@H]2[C@@H]3CCC4=CC(=O)C=C[C@]4(C)[C@@]3(F)[C@@H](O)C[C@]2(C)[C@@]1(O)C(=O)CO [dexamethasone, reference compound]
increase in amylase content vs non-dexamethasone-treated cells (AR42J cells [6]): 6.6 fold
amylase content of cells (AR42J cells [6]; non-treated cells 1.88 U/l): 12.57 U/l

[O]=[V]([O-])([O-])[O-] [vanadate]
effect on amylase release when given alone (AR42J cells [3]): increased significantly
effect on CCK-induced amylase release (AR42J cells [3]; vanadate 1 mM): increased significantly

CCK: Cholecytokinin, stimulus of amylase release, from Sigma
intracellular cAMP levels (AR42J cells [5]): not altered
concentration of maximum stimulation of amylase release (AR42J cells [3]; 50 min, dexamethasone-induced AR42J cells): 10 nM
effect on amylase release when given alone (AR42J cells [3]; [9]): potent stimulus of amylase release
peak [Ca2+]i amplitude, increase over resting indo-1 fluorescence ratio (IFR) (AR42J cells [7]; single cells): 2.5–3.5 fold
AR42J cells showing [Ca2+]i response (AR42J cells [7]; single cells, glucagon 10 nM): 85%
total amylase released (rat acinar cells): 12%
increase in tyrosine phosphorylation levels of 46, 66, 120 and 190 kDa proteins (AR42J cells [4]): ≥ 2 fold

^125I-GLP-1: radiolabelled GLP-1 (2,000 Ci/mmol, Peninsula)
specific 125I-GLP-1 binding, % of total binding (AR42J cells [8]): 27±3.2%
specific 125I-GLP-1 binding, % of total radioactivity added (AR42J cells [8]): 0.64±0.16%

glucagon: islet hormone, from Bachem
increase in cAMP levels (AR42J cells [5]; glucagon 10 nM, presence and absence of CCK): 2 fold
effect on amylase release when given alone (AR42J cells [3]; [9]): no effect
effect on CCK-induced amylase release (AR42J cells [3]; vanadate 1 mM): inhibited, but did not fully abolish
peak [Ca2+]i transient as percent of resting IFR level (AR42J cells [7]; glucagon 10 nM): 200–250%
effect on time course of CCK-induced [Ca2+]i transients (AR42J cells [7]; glucagon 10 nM, 8-bromo-cAMP 0.1 μM for 60–300 sec): attenuated rate of rise and a very slow rate of relaxation
AR42J cells showing [Ca2+]i response (AR42J cells [7]; single cells, glucagon 10 nM): 70%

insulin: islet hormone, from Sigma
effect on amylase release when given alone (AR42J cells [3]; [9]): did not influence amylase release
effect on CCK-induced amylase release (AR42J cells [3]; vanadate 1 mM): did not influence amylase release
basal or CCK (1 nM)-induced amylase release after pre-incubation (AR42J cells [3]; pre-incubation 8, 24, 48 or 72 h with GLP-1 (10 nM) and insulin (100 nM)): did not increase
effect on protein tyrosine phosphorylation (AR42J cells [4]): increased phosphorylation of 97 kDa band
